# Data as given in publication PMC10647805 (2023).
# How the values were obtained:
# [1] = tested on: TBA (DNA, G4) GGTTGGTGTGGTTGG; test: variable-temperature CD; conditions: K+ (100 mM KF, 10 mM potassium phosphate); PBS pH 7.4; 5 μM DNA, 5 equivalents (25 μM) compound
# [2] = tested on: c-KIT1 (DNA, G4) GGGAGGGCGCTGGGAGGAGGG; test: variable-temperature CD; conditions: K+ (100 mM KF, 10 mM potassium phosphate); PBS pH 7.4; 2 μM DNA, 5 equivalents (10 μM) compound
# [3] = tested on: c-KIT1 (DNA, G4) GGGAGGGCGCTGGGAGGAGGG; test: UV-Vis titration; conditions: K+ (100 mM KF, 10 mM potassium phosphate); PBS pH 7.4, ca. 20 °C; 2 μM DNA; 1:1 fit
# [4] = tested on: dsDNA (DNA, hairpin, HEG linker (non-nucleotide loop) between 10 and 11) TATAGCTATATATAGCTATA; test: UV-Vis titration; conditions: K+ (100 mM KF, 10 mM potassium phosphate); PBS pH 7.4, ca. 20 °C; 5 μM DNA; 1:1 fit; per base
# [5] = tested on: h-TELO (DNA, G4) AGGGTTAGGGTTAGGGTTAGGGT; test: variable-temperature CD; conditions: K+ (100 mM KF, 10 mM potassium phosphate); PBS pH 7.4; 5 μM DNA, 5 equivalents (25 μM) compound
# [6] = tested on: h-TELO (DNA, G4) AGGGTTAGGGTTAGGGTTAGGGT; test: UV-Vis titration; conditions: K+ (100 mM KF, 10 mM potassium phosphate); PBS pH 7.4, ca. 20 °C; 5 μM DNA; 1:1 fit
# [7] = tested on: dsDNA (DNA, hairpin, HEG linker (non-nucleotide loop) between 10 and 11) TATAGCTATATATAGCTATA; test: variable-temperature CD; conditions: K+ (100 mM KF, 10 mM potassium phosphate); PBS pH 7.4; 5 μM DNA, 5 equivalents (25 μM) compound; per base
SMILES,ΔTm [1] [°C],ΔTm [2] [°C],KD [3] [µM],KD [4] [µM],ΔTm [5] [°C],KD [6] [µM],ΔTm [7] [°C]
CC(C)(C)OC(=O)N[C@@H](CN1C(=O)c2ccc3c4c(ccc(c24)C1=O)C(=O)N(C[C@H](NC(=O)OC(C)(C)C)C(=O)O)C3=O)C(=O)O,0.1,5.4,2.6 ± 0.4,65.2 ± 35.9,2.4,–,–
CC(C)C[C@@H](CC(=O)O)N1C(=O)c2ccc3c4c(ccc(c24)C1=O)C(=O)N([C@H](CC(=O)O)CC(C)C)C3=O,−0.1,–,–,23.6 ± 8.4,1.7,11.0 ± 3.1,–
O=C(O)[C@@H](O)[C@@H](Cc1ccccc1)N1C(=O)c2ccc3c4c(ccc(c24)C1=O)C(=O)N([C@H](Cc1ccccc1)[C@H](O)C(=O)O)C3=O,0.8,–,–,–,–,–,−0.1
C[C@@H](CC(=O)O)N1C(=O)c2ccc3c4c(ccc(c24)C1=O)C(=O)N([C@@H](C)CC(=O)O)C3=O,–,–,–,–,0.2,–,−2.1
CC(C)C[C@H](CC(=O)O)N1C(=O)c2ccc3c4c(ccc(c24)C1=O)C(=O)N([C@@H](CC(=O)O)CC(C)C)C3=O,–,−0.9,–,50.2 ± 15.4,–,13.6 ± 3.4,–

# Second part, the compound after the results:
ΔTm [1] [°C],ΔTm [2] [°C],KD [3] [µM],KD [4] [µM],ΔTm [5] [°C],KD [6] [µM],ΔTm [7] [°C],SMILES
–,1.7,8.0 ± 2.5,30.7 ± 6.9,–,–,–,CC(C)(C)OC(=O)N[C@H](CN1C(=O)c2ccc3c4c(ccc(c24)C1=O)C(=O)N(C[C@@H](NC(=O)OC(C)(C)C)C(=O)O)C3=O)C(=O)O
–,3.2,–,–,–,–,–,O=C(O)[C@@H](O)CN1C(=O)c2ccc3c4c(ccc(c24)C1=O)C(=O)N(C[C@H](O)C(=O)O)C3=O
